Test results taken from paper PMC7108740, “Exploring the molecular structures that confer ligand selectivity for galanin type II and III receptors” (PLoS ONE, 2020).
Residue numbers refer to the chain shown, from its start. Ends that are not written are not given here.

Assays:
Type in all cases: cell-based
GALR3 septuple [1] = molecular target: T1, GALR3 septuple (Homo sapiens, UniProt O60755, A190V/A191F/C272L/G192S/L100F/Y103F/Y107H); assay: cAMP assay (inhibition of forskolin-induced cAMP), GALR3 septuple mutant; details: Glosensor-22F cAMP HEK293 cells, agonist 10 min then forskolin 10 μM, mean ± SE, SEM
T1 construct: expressed in transfected cells; host or cells: HEK293 cells stably expressing pGlosensor-22F cAMP plasmid
T1 sequence (O60755 1-368 L100F/Y103F/Y107H/A190V/A191F/G192S/C272L): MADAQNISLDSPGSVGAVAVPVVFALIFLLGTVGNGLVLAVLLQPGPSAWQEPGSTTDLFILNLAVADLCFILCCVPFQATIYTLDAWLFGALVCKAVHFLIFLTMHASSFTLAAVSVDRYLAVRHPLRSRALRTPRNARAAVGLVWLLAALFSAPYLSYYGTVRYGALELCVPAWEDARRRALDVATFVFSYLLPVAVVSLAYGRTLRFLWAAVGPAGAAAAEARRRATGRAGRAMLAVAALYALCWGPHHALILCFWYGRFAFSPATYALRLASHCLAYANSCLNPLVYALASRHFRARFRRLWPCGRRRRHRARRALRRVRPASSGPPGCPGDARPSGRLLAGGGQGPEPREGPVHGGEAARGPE
Description: SPX-induced or Qu-SPX-induced cyclic adenosine monophosphate (cAMP) mobilization was measured in HEK293 cells stably expressing the pGlosensor^TM-22F cAMP plasmid (Promega Corp., Madison, WI, USA). The Glosensor-22F cAMP HEK293 cells were seeded on 96-well plates at a density of 2.0 × 10^4 cells/well 24 h before transfection. A mixture including 100 ng expression plasmid and lipofectamine 2000 reagent in diluted Opti-MEM (Gibco) was incubated at room temperature for 20 min. The mixtures were added into each well according to the manufacturer's instructions (Invitrogen, CA, USA). After 48 h, Glosensor cAMP substrates were added to the transfected cells in CO2-independent media. After 2 h, the cells were incubated with a range of agonist concentrations or vehicle for 10 min and then exposed to foskolin (10 μM). Luminescence was measured for up to 30 min using a Microplate Reader (BioTek, Winooski, VT, USA).
Data analysis was performed by non-linear regression with a sigmoidal dose-response curve. The concentrations of agonists that induced half-maximal stimulation (EC50) were calculated using the GraphPad PRISM5 software (GraphPad software, Inc., San Diego, CA). All data are presented as the mean ± standard error (SE) of at least three independent experiments. […]

human GALR2 = molecular target: T2, human GALR2 (Homo sapiens, UniProt O43603); assay: SRE-luc luciferase assay, WT GALR2; details: SRE-luc in HEK293 Gqi cells, ligand 6 h, mean ± SE, at least three independent experiments, SEM
T2 construct: host or cells: HEK293 cells stably expressing Gqi
T2 sequence (O43603 1-387): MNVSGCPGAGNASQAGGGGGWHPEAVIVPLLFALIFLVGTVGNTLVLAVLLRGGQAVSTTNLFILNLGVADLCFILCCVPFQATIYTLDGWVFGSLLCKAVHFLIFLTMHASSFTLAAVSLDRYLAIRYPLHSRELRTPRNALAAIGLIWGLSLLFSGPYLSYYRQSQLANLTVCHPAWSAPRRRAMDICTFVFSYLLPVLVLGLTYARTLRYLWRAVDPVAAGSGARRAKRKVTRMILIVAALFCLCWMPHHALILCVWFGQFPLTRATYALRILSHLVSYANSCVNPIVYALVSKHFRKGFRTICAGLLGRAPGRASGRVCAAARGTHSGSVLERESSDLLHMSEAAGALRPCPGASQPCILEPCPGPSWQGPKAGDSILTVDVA
Excerpt: (§1) The pcDNA3.1 vector was purchased from Invitrogen (San Diego, CA, USA). The serum response element (SRE)-luciferase (SRE-luc) vector containing a single copy of the SRE (CCATATTAGG) conjugated with luciferase was purchased from Stratagene (La Jolla, CA, USA). The cDNAs for human GALR1, GALR2, and GALR3 were obtained from BRN SCIENCE, Inc. The cDNAs were inserted into the EcoRⅠ and XhoⅠ sites of pcDNA3.1.
(§2) HEK293 cells stably expressing the Gqi construct, which allows induction of Gq-dependent signaling pathways upon activation of a Gi-coupled receptor [14, 30], were maintained in Dulbecco's Modified Eagle's Medium (DMEM) in the presence of 10% fetal bovine serum and 1% penicillin and streptomycin. For all transfections, 200 ng DNA (100 ng receptor and 100 ng SRE-luc) mixed with lipofectamine 2000 was applied to 60–80% confluent cells on a multi-well plate according to the manufacturer's instructions (Invitrogen, Carlsbad, CA).
(§3) For luciferase assays, HEK293 Gqi cells were seeded on 48-well plates at a density of 2.5 × 10^4 cells/well one day before transfection. A mixture including 100 ng SRE-luc reporter construct, 100 ng expression plasmid, and lipofectamine 2000 reagent in diluted Opti-MEM (Gibco) was incubated at room temperature for 20 min and then added into each well according to the manufacturer's instructions (Invitrogen, CA, USA). Before exposure to the ligands, the cells were maintained in serum-free DMEM for 16–18 h. Approximately 48 h after transfection, the cells were treated with ligand for 6 h. The cells were then lysed by the addition of 100 μl lysis buffer. The luciferase activity in 50 μl cell extract was determined using a luciferase assay system according to the standard protocol for the Synergy 2 Multi-Mode Microplate Reader (BioTek, Winooski, VT, USA).
(§4) Data analysis was performed by non-linear regression with a sigmoidal dose-response curve. The concentrations of agonists that induced half-maximal stimulation (EC50) were calculated using the GraphPad PRISM5 software (GraphPad software, Inc., San Diego, CA). All data are presented as the mean ± standard error (SE) of at least three independent experiments.

GALR3 septuple [2] = molecular target: T1, GALR3 septuple; assay: SRE-luc luciferase assay, GALR3 septuple mutant; details: SRE-luc in HEK293 Gqi cells, ligand 6 h, mean ± SE, SEM
Excerpt: For domain swapping between GALR2 and GALR3, individual cDNA fragments of interest were amplified by polymerase chain reaction (PCR) with Pfu polymerase (ELPIS Biotech, Daejeon, Korea) and two specific primers, one corresponding to the 5' or 3' end of the GALR2 or GALR3 cDNA and the other to the region of overlap between the two receptors. The two resulting fragments, one from GALR2 and the other from GALR3, were subjected to a second round of PCR to generate the chimeric cDNAs. To construct single, double-, triple-, pentuple-, hextuple-, and septuple-mutant receptors, amino acids of GALR3 were substituted for the amino acids at the corresponding positions in GALR2 using PCR-based site-directed mutagenesis. […]
For luciferase assays, HEK293 Gqi cells were seeded on 48-well plates at a density of 2.5 × 10^4 cells/well one day before transfection. […] The luciferase activity in 50 μl cell extract was determined using a luciferase assay system according to the standard protocol for the Synergy 2 Multi-Mode Microplate Reader (BioTek, Winooski, VT, USA).
Data analysis was performed by non-linear regression with a sigmoidal dose-response curve. The concentrations of agonists that induced half-maximal stimulation (EC50) were calculated using the GraphPad PRISM5 software (GraphPad software, Inc., San Diego, CA). […]

[3] = molecular target: T3, GALR3 single mutant P^267R (Homo sapiens, UniProt O60755, P267R); assay: SRE-luc luciferase assay, GALR3 P267R; details: GALR3 P^267R; SRE-luc in HEK293 Gqi cells, ligand 6 h; mean ± S.E.; SEM
T3 construct: expressed in transfected cells; host or cells: HEK293 cells stably expressing Gqi
T3 sequence (O60755 whole entry P267R): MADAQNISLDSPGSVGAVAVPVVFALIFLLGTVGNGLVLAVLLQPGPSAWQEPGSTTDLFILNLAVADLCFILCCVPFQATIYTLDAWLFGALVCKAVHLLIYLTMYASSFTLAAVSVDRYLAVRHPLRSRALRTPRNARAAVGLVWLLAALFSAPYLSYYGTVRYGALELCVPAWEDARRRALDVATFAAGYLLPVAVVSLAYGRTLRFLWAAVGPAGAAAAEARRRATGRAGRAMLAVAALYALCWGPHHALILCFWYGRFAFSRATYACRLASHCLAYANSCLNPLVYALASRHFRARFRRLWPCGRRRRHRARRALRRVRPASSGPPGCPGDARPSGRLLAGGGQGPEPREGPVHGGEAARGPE
Excerpt: (§5) For domain swapping between GALR2 and GALR3, individual cDNA fragments of interest were amplified by polymerase chain reaction (PCR) with Pfu polymerase (ELPIS Biotech, Daejeon, Korea) and two specific primers, one corresponding to the 5' or 3' end of the GALR2 or GALR3 cDNA and the other to the region of overlap between the two receptors. The two resulting fragments, one from GALR2 and the other from GALR3, were subjected to a second round of PCR to generate the chimeric cDNAs. To construct single, double-, triple-, pentuple-, hextuple-, and septuple-mutant receptors, amino acids of GALR3 were substituted for the amino acids at the corresponding positions in GALR2 using PCR-based site-directed mutagenesis. All of the chimeric constructs were cloned into the pcDNA3 expression vector at HindⅢ and XbaⅠ sites. The DNA sequences of the chimeras were verified by automatic sequencing. […] The luciferase activity in 50 μl cell extract was determined using a luciferase assay system according to the standard protocol for the Synergy 2 Multi-Mode Microplate Reader (BioTek, Winooski, VT, USA). […] The concentrations of agonists that induced half-maximal stimulation (EC50) were calculated using the GraphPad PRISM5 software (GraphPad software, Inc., San Diego, CA). […]

[4] = molecular target: T4, GALR3 single mutant F^265P (Homo sapiens, UniProt O60755); assay: SRE-luc luciferase assay, GALR3 F265P; details: GALR3 F^265P; SRE-luc in HEK293 Gqi cells, ligand 6 h; mean ± S.E.; SEM
T4 construct: expressed in transfected cells; host or cells: HEK293 cells stably expressing Gqi
T4 sequence (O60755 whole entry F265L): as the sequence (O60755 whole entry P267R) above, with F265L, R267P counted along it
Excerpt: as §5

[5] = molecular target: T5, GALR3 single mutant S^266T (Homo sapiens, UniProt O60755, S266T); assay: SRE-luc luciferase assay, GALR3 S266T; details: GALR3 S^266T; SRE-luc in HEK293 Gqi cells, ligand 6 h; mean ± S.E.; SEM
T5 construct: expressed in transfected cells; host or cells: HEK293 cells stably expressing Gqi
T5 sequence (O60755 whole entry S266T): as the sequence (O60755 whole entry P267R) above, with S266T, R267P counted along it
Excerpt: as §5

[6] = molecular target: T6, GALR3 single mutant C^272L (Homo sapiens, UniProt O60755, C272L); assay: SRE-luc luciferase assay, GALR3 C272L; details: GALR3 C^272L; SRE-luc in HEK293 Gqi cells, ligand 6 h; mean ± S.E.; SEM
T6 construct: expressed in transfected cells; host or cells: HEK293 cells stably expressing Gqi
T6 sequence (O60755 whole entry C272L): as the sequence (O60755 whole entry P267R) above, with R267P, C272L counted along it
Excerpt: as §5

GALR3 = molecular target: T7, GALR3 (Homo sapiens, UniProt O60755); assay: SRE-luc luciferase assay, WT GALR3; design: host or cells: HEK293 cells stably expressing Gqi; details: SRE-luc in HEK293 Gqi cells, ligand 6 h, mean ± SE, at least three independent experiments, SEM
T7 sequence (O60755 1-368): T1 sequence (O60755 1-368 L100F/Y103F/Y107H/A190V/A191F/G192S/C272L) with F100L, F103Y, H107Y, V190A, F191A, S192G, L272C
Excerpt: as §1, §2, §3, §4

[7] = molecular target: T8, GALR3 single mutant A^264P (Homo sapiens, UniProt O60755, A264P); assay: SRE-luc luciferase assay, GALR3 A264P; details: GALR3 A^264P; SRE-luc in HEK293 Gqi cells, ligand 6 h; mean ± S.E.; SEM
T8 construct: expressed in transfected cells; host or cells: HEK293 cells stably expressing Gqi
T8 sequence (O60755 whole entry A264P): as the sequence (O60755 whole entry P267R) above, with A264P, R267P counted along it
Excerpt: as §5

Row | EC50 (GALR3 septuple [1]) [nM] | EC50 (human GALR2) [nM] | EC50 (GALR3 septuple [2]) [nM] | EC50 [3] [nM] | EC50 [4] [nM] | EC50 [5] [nM] | EC50 [6] [nM] | EC50 (GALR3) [nM] | EC50 [7] [nM] | Substance
1 | 794 ± 358 | 87.1 ± 19.5 | 1100 ± 163 |  |  |  |  |  |  | NWTPNAALYLFGPQ-NH2 [Qu-SPX]
2 |  | 47.9 ± 11.5 |  | 562 ± 173 | 457 ± 118 | 200 ± 29.7 | 66.1 ± 22.4 | 490 ± 118 | 589 ± 200 | NWTPQAMLYLFGAQ-NH2 [F^11-SPX]
